{
  "source": "ChEMBL document CHEMBL1123242",
  "about": "“Derivatives of 1-(1,3-benzodioxol-5-yl)-2-butanamine: representatives of a novel therapeutic class” (1986)",
  "type_in_all_cases": "functional",
  "key": {"[1]": {"test_system": "Rattus norvegicus", "experiment": "Compound was tested for hallucinogenic activity in rats at 1.83 dose (mg/kg); Number of rats selecting the LSD lever/ number of rats responding (1/8)"}, "[2]": {"test_system": "Rattus norvegicus", "experiment": "Compound was tested for hallucinogenic activity in rats at 2.19 dose(mg/kg); Number of rats selecting the LSD lever/ number of rats responding (2/8)"}, "[3]": {"test_system": "Rattus norvegicus", "experiment": "Compound was tested for hallucinogenic activity in rats at 0.73(mg/kg); Number of rats selecting the LSD lever/ number of rats responding (1/8)"}, "[4]": {"test_system": "Rattus norvegicus", "experiment": "Compound was tested for hallucinogenic activity in rats at 2.92 dose(mg/kg); Number of rats selecting the LSD lever/ number of rats responding (3/8)"}, "[5]": {"test_system": "Rattus norvegicus", "experiment": "Compound was tested for hallucinogenic activity in rats at the dose 0.37(mg/kg); Number of rats selecting the LSD lever/ number of rats responding (1/8)"}, "[6]": {"test_system": "Rattus norvegicus", "experiment": "Compound was tested for hallucinogenic activity in rats at 3.65 dose(mg/kg); 0/1, highest dose tested"}, "[7]": {"test_system": "Rattus norvegicus", "experiment": "Compound was tested for hallucinogenic activity in rats at dose 1.46 (mg/kg); Number of rats selecting the LSD lever/ number of rats responding (1/8)"}, "[8]": {"test_system": "Rattus norvegicus", "experiment": "Compound was tested for hallucinogenic activity in rats at 2.56 dose(mg/kg); Number of rats selecting the LSD lever/ number of rats responding (2/8)"}, "[9]": {"test_system": "Rattus norvegicus", "experiment": "Compound was tested for hallucinogenic activity in rats at the dose 0.17 mg/kg); Number of rats selecting the LSD lever/ number of rats responding (3/8)"}, "[10]": {"test_system": "Rattus norvegicus", "experiment": "Compound was tested for hallucinogenic activity in rats at the dose 0.32(mg/kg); Number of rats selecting the LSD lever/ number of rats responding (2/8)"}, "[11]": {"test_system": "Rattus norvegicus", "experiment": "Compound was tested for hallucinogenic activity in rats at 1.62 dose(mg/kg); Number of rats selecting the LSD lever/ number of rats responding (2/6)"}, "[12]": {"test_system": "Rattus norvegicus", "experiment": "Compound was tested for hallucinogenic activity in rats at 0.63 dose(mg/kg); Number of rats selecting the LSD lever/ number of rats responding (2/8)"}, "[13]": {"test_system": "Rattus norvegicus", "experiment": "Compound was tested for hallucinogenic activity in rats at 1.73 dose(mg/kg); 0/0, highest dose tested"}, "[14]": {"test_system": "Rattus norvegicus", "experiment": "Compound was tested for hallucinogenic activity in rats at dose 1.29(mg/kg); Number of rats selecting the LSD lever/ number of rats responding (3/8)"}, "[15]": {"test_system": "Rattus norvegicus", "experiment": "Compound was tested for hallucinogenic activity in rats at the dose 0.16(mg/kg); Number of rats selecting the LSD lever/ number of rats responding (1/8)"}, "[16]": {"test_system": "Rattus norvegicus", "experiment": "Compound was tested for hallucinogenic activity in rats at 2.41 dose(mg/kg); Number of rats selecting the LSD lever/ number of rats responding (8/8)"}, "[17]": {"test_system": "Rattus norvegicus", "experiment": "Compound was tested for hallucinogenic activity in rats at 2.07 dose(mg/kg); Number of rats selecting the LSD lever/ number of rats responding (3/8)"}, "[18]": {"test_system": "Rattus norvegicus", "experiment": "Compound was tested for hallucinogenic activity in rats at 1.72 dose (mg/kg); Number of rats selecting the LSD lever/ number of rats responding (2/8)"}, "[19]": {"test_system": "Rattus norvegicus", "experiment": "Compound was tested for hallucinogenic activity in rats at the dose 1.38 (mg/kg)"}, "[20]": {"test_system": "Rattus norvegicus", "experiment": "Compound was tested for hallucinogenic activity in rats at the dose 0.17 (mg/kg)"}, "[21]": {"test_system": "Rattus norvegicus", "experiment": "Compound was tested for hallucinogenic activity in rats at the dose 0.34(mg/kg); Number of rats selecting the LSD lever/ number of rats responding (1/8)"}, "[22]": {"test_system": "Rattus norvegicus", "experiment": "Compound was tested for hallucinogenic activity in rats at the dose 0.17(mg/kg); Number of rats selecting the LSD lever/ number of rats responding (1/8)"}, "[23]": {"test_system": "Rattus norvegicus", "experiment": "Compound was tested for hallucinogenic activity in rats at dose 1.38 (mg/kg); Number of rats selecting the LSD lever/ number of rats responding (3/8)"}, "[24]": {"test_system": "Rattus norvegicus", "experiment": "Compound was tested for hallucinogenic activity in rats at 0.69 dose(mg/kg); Number of rats selecting the LSD lever/ number of rats responding (1/8)"}, "[25]": {"test_system": "Rattus norvegicus", "experiment": "Compound was tested for hallucinogenic activity in rats at 0.16 dose(mg/kg); Number of rats selecting the LSDlever/ number of rats responding (1/8)"}, "[26]": {"test_system": "Rattus norvegicus", "experiment": "Compound was tested for hallucinogenic activity in rats at the 0.63 dose(mg/kg); Number of rats selecting the LSDlever/ number of rats responding (2/8)"}, "[27]": {"test_system": "Rattus norvegicus", "experiment": "Compound was tested for hallucinogenic activity in rats at 0.32 dose(mg/kg); Number of rats selecting the LSDlever/ number of rats responding (2/8)"}, "[28]": {"test_system": "Rattus norvegicus", "experiment": "Compound was tested for hallucinogenic activity in rats at the dose 0.16 (mg/kg)"}, "[29]": {"test_system": "Rattus norvegicus", "experiment": "Compound was tested for hallucinogenic activity in rats at the 1.29 dose(mg/kg); Number of rats selecting the LSDlever/ number of rats responding (7/8)"}, "[30]": {"test_system": "Rattus norvegicus", "experiment": "Compound was tested for hallucinogenic activity in rats at the dose 0.17(mg/kg); Number of rats selecting the LSD lever/ number of rats responding […])"}, "[31]": {"test_system": "Rattus norvegicus", "experiment": "Compound was tested for hallucinogenic activity in rats at 1.82 dose (mg/kg); 0/0, highest dose tested"}, "[32]": {"test_system": "Rattus norvegicus", "experiment": "Compound was tested for hallucinogenic activity in rats at dose 1.38(mg/kg); Number of rats selecting the LSD lever/ number of rats responding (4/8)"}, "[33]": {"test_system": "Rattus norvegicus", "experiment": "Compound was tested for hallucinogenic activity in rats at dose 1.72 (mg/kg); Number of rats selecting the LSD lever/ number of rats responding (4/8)"}, "[34]": {"test_system": "Rattus norvegicus", "experiment": "Compound was tested for hallucinogenic activity in rats at 0.69 dose(mg/kg); Number of rats selecting the LSD lever/ number of rats responding (4/8)"}, "[35]": {"test_system": "Rattus norvegicus", "experiment": "Compound was tested for hallucinogenic activity in rats at the dose 0.34(mg/kg); Number of rats selecting the LSD lever/ number of rats responding (2/8)"}, "[36]": {"test_system": "Rattus norvegicus", "experiment": "Compound was tested for hallucinogenic activity in rats at 3.45 dose (mg/kg); Number of rats selecting the LSD lever/ number of rats responding (3/8)"}, "[37]": {"test_system": "Rattus norvegicus", "experiment": "Compound was tested for hallucinogenic activity in rats at 1.72 dose (mg/kg); Number of rats selecting the LSD lever/ number of rats responding (2/9)"}, "[38]": {"test_system": "Rattus norvegicus", "experiment": "Compound was tested for hallucinogenic activity in rats at 4.14 dose (mg/kg); Number of rats selecting the LSD lever/ number of rats responding (2/8)"}, "[39]": {"test_system": "Rattus norvegicus", "experiment": "Compound was tested for hallucinogenic activity in rats at the dose 0.17(mg/kg); Number of rats selecting the LSD lever/ number of rats responding (2/8)"}, "[40]": {"test_system": "Rattus norvegicus", "experiment": "Compound was tested for hallucinogenic activity in rats at 5.52 dose(mg/kg); 1/2, highest dose tested"}, "[41]": {"test_system": "Rattus norvegicus", "experiment": "Compound was tested for hallucinogenic activity in rats at 0.69 dose(mg/kg); Number of rats selecting the LSD lever/ number of rats responding (0/8)"}, "[42]": {"test_system": "Rattus norvegicus", "experiment": "Compound was tested for hallucinogenic activity in rats at dose 1.38 (mg/kg); 1/8"}, "[43]": {"test_system": "Rattus norvegicus", "experiment": "Compound was tested for hallucinogenic activity in rats at 2.07 dose(mg/kg); Number of rats selecting the LSD lever/ number of rats responding (3/10)"}, "[44]": {"test_system": "Rattus norvegicus", "experiment": "Compound was tested for hallucinogenic activity in rats at 2.41 dose(mg/kg); Number of rats selecting the LSD lever/ number of rats responding (3/8)"}, "[45]": {"test_system": "Rattus norvegicus", "experiment": "Compound was tested for hallucinogenic activity in rats at 2.76 dose(mg/kg); Number of rats selecting the LSD lever/ number of rats responding (4/8)"}},
  "data": [
    {"smiles": "CC[C@H](Cc1ccc2c(c1)OCO2)NC", "values": [
      {"measurement": "Result", "setting": "[1]", "result": 1},
      {"measurement": "Result", "setting": "[2]", "result": 2},
      {"measurement": "Result", "setting": "[3]", "result": 1},
      {"measurement": "Result", "setting": "[4]", "result": 3},
      {"measurement": "Result", "setting": "[5]", "result": 1},
      {"measurement": "Result", "setting": "[6]", "result": 0},
      {"measurement": "Result", "setting": "[7]", "result": 1},
      {"measurement": "Result", "setting": "[8]", "result": 2},
      {"measurement": "Result", "setting": "[9]", "result": 3}
    ]},
    {"smiles": "C[C@H](N)Cc1ccc2c(c1)OCO2", "values": [
      {"measurement": "Result", "setting": "[10]", "result": 2},
      {"measurement": "Result", "setting": "[11]", "result": 2},
      {"measurement": "Result", "setting": "[12]", "result": 2},
      {"measurement": "Result", "setting": "[13]", "result": 0},
      {"measurement": "Result", "setting": "[14]", "result": 3},
      {"measurement": "Result", "setting": "[15]", "result": 1}
    ]},
    {"smiles": "CC[C@H](N)Cc1ccc2c(c1)OCO2", "values": [
      {"measurement": "Result", "setting": "[16]", "result": 8},
      {"measurement": "Result", "setting": "[17]", "result": 3},
      {"measurement": "Result", "setting": "[18]", "result": 2},
      {"measurement": "ED50", "setting": "[19]", "result": 1.38, "unit": "mg/kg"},
      {"measurement": "ED50", "setting": "[20]", "result": 6, "unit": "µmol/kg"},
      {"measurement": "Result", "setting": "[21]", "result": 1},
      {"measurement": "Result", "setting": "[22]", "result": 1},
      {"measurement": "Result", "setting": "[23]", "result": 3},
      {"measurement": "Result", "setting": "[24]", "result": 1}
    ]},
    {"smiles": "C[C@@H](N)Cc1ccc2c(c1)OCO2", "values": [
      {"measurement": "Result", "setting": "[25]", "result": 1},
      {"measurement": "Result", "setting": "[26]", "result": 2},
      {"measurement": "Result", "setting": "[27]", "result": 2},
      {"measurement": "ED50", "setting": "[28]", "result": 2.94, "unit": "µmol/kg"},
      {"measurement": "Result", "setting": "[29]", "result": 7}
    ]},
    {"smiles": "CN[C@@H](C)Cc1ccc2c(c1)OCO2", "values": [
      {"measurement": "Result", "setting": "[30]", "result": 2},
      {"measurement": "Result", "setting": "[31]", "result": 0},
      {"measurement": "Result", "setting": "[32]", "result": 4},
      {"measurement": "Result", "setting": "[33]", "result": 4},
      {"measurement": "Result", "setting": "[34]", "result": 4},
      {"measurement": "Result", "setting": "[35]", "result": 2}
    ]},
    {"smiles": "CC[C@@H](N)Cc1ccc2c(c1)OCO2", "values": [
      {"measurement": "Result", "setting": "[36]", "result": 3},
      {"measurement": "Result", "setting": "[37]", "result": 2},
      {"measurement": "Result", "setting": "[38]", "result": 2},
      {"measurement": "Result", "setting": "[39]", "result": 2},
      {"measurement": "Result", "setting": "[40]", "result": 1},
      {"measurement": "Result", "setting": "[41]", "result": 0},
      {"measurement": "Result", "setting": "[42]", "result": 1},
      {"measurement": "Result", "setting": "[43]", "result": 3},
      {"measurement": "Result", "setting": "[35]", "result": 2},
      {"measurement": "Result", "setting": "[44]", "result": 3},
      {"measurement": "Result", "setting": "[45]", "result": 4}
    ]}
  ]
}
